Experimental data taken from ChEMBL document CHEMBL3507680, “University of Dundee, Gates Library screen for HepG2 cell viability”.

Experiment: Human HepG2 cell viability assay in 384 well format
Format: toxicity, cell-based
Set-up: dose 125 nL, time 70.5 hour; cytotoxicity at 70.5 h: concentration not given beside the values
Settings: HepG2 cells, read-out: Inhibition

Structure (SMILES) | cytotoxicity at 70.5 h [%]
COc1ccc2c(=O)ccn(CC(=O)O)c2c1 | 1.58
COCc1cnc2n1CCN(C(=O)c1ocnc1C)C2C (centres undefined) | 10.1
COCCc1noc(CN2CCCC(Cn3cncn3)C2)n1 (centres undefined) | -7.84
CC(C)NC(=O)N1CC[C@H]2[C@H]1CCN2c1ncccn1 | -5.58
CN(C)C1COC2(CCN(C(=O)c3cccc(Cl)c3)CC2)C1 (centres undefined) | -9.63
CC(=O)N1CCC(c2cnc(-c3c(C)nn(C)c3C)cn2)CC1 | -9.85
COCC(=O)N1CC[C@H]2[C@H]1CCN2CC(C)C | -12.6
COc1ccccc1CC(=O)N1CCN(Cc2ccco2)C[C@@H]1C | -2.18
O=C1C(NCc2ccccc2O)CCN1Cc1ccccc1 (centres undefined) | 18.3
Cc1nc(C)n(CC2CCCN2CCOc2ccc(C#N)cc2)n1 (centres undefined) | 6.36
Cc1ncncc1-c1ccnc(NC(C)C)n1 | -2.82
Cc1ccccc1CN(CCN(C)C)Cc1ccc(S(C)(=O)=O)cc1 | 4.23
CCCn1ccnc1CN1CCC(O)(CN2CCCCC2)C1 (centres undefined) | -4.35
Fc1ccc(CN[C@@H]2COC[C@H]2c2ccc(F)cc2)cc1 | 0.602
O=C(c1ccc(Cl)s1)N1CCCn2nc(CN3CC[C@H](F)C3)cc2C1 | -10.2
COc1ccccc1C(C)NC(=O)NCCC(=O)NC1CCCCC1 (centres undefined) | -16.1
CC(NC(=O)N1CCN(c2ncccn2)CC1)c1ccc(C#N)cc1 (centres undefined) | -4.87
CCn1nc(C)c(CNC(=O)c2cn(CCC3CCCCN3)nn2)c1C (centres undefined) | -7.47
Cc1cc(NC(=O)N2CCOCC2)nn1-c1ccccc1Cl | -5.4
COc1nn(C)cc1C(=O)N1CCC(c2nnc(C(C)C)o2)CC1 | -4.14
O=C(Cc1cccc(F)c1)N1CCc2ncnc(N3CCCC3)c2CC1 | -1.93
Cc1nnsc1CN1C[C@H]2CC[C@@H]1CN(Cc1ccccc1)C2 | -1.08
CCCn1nc2c(cc1=O)CN(Cc1cc(C)on1)CC2 | 4.88

Structure (SMILES) | cytotoxicity at 70.5 h [%]
CC(=O)c1ccc(C(=O)N2CCCCC2c2nc[nH]n2)cc1 (centres undefined) | 1.34
Cc1nc(C(=O)N[C@H]2COC[C@@H]2N2CCCCC2)cs1 | 17.8
Nc1nccnc1C(=O)N(Cc1ccco1)CC1CCCO1 (centres undefined) | -2.09
COc1ccc(C2CCCN2C(=O)NCCNc2ncccn2)cc1 (centres undefined) | -4.74
C=C1C(C)(C)[C@H]2CC[C@]1(C(=O)N1CCC(n3cc(CCO)nn3)CC1)C2 | -10.3
CS(=O)(=O)c1ccc(CNCC2CCN(CCO)CC2)cc1 | 18.2
COc1cccc(F)c1C(C)NC(=O)NCc1cnc(C)s1 (centres undefined) | -1.56
Cc1noc(C)c1CN1CCO[C@H]2[C@H](Oc3ccccn3)CC[C@@H]21 | -0.309
Cc1ocnc1C(=O)N1CCC(c2nccn2Cc2ccncc2)CC1 | -6.78
O=C(c1cc(C2CC2)[nH]n1)N1CCN(Cc2ccncc2)CC1 | -11.9
Cc1ccnc(C2CCN(C(=O)c3cnn(C)c3)C2)n1 (centres undefined) | 12.7
C[C@@H](N)C(=O)N1CCC(c2[nH]ncc2-c2ccccc2)CC1 | -8.76
CC(C)c1nc(C2CCCN(C(=O)CN3CCCNC3=O)C2)no1 (centres undefined) | -6.67
COc1ncccc1CNC(=O)NCc1ccco1 | -1.48
Cc1nc(S(=O)(=O)N2CCSC3(CCCCC3)C2)cn1C | -4
CN(C)CCN1CCO[C@@H]2CCN(C(=O)c3cccn3C)CC[C@H]21 | 10.8
O=C(O)Cn1ccc(=O)c2cc(F)ccc21 | -10.1
CNC(=O)c1ccccc1NCc1ncnn1C | -96.8
COC(=O)c1cc2c(=O)[nH]c(=O)n(CCc3ccccc3)c2nc1C | 4.39
CCN1CC(C(=O)NCc2nc(C3CCCCC3)no2)CC1=O (centres undefined) | 5.22
CN(C)c1cccc(C(=O)N2CCCc3cc(OC(F)(F)F)ccc32)c1 | -9.8
C=C(C)COc1cccc(C(=O)N2CCC(O)(c3ccccc3)CC2)c1 | 7.64
Cc1ccc(NC2CCN(C(=O)c3ccc(Cl)o3)CC2)nn1 | 34.4

Structure (SMILES) | cytotoxicity at 70.5 h [%]
CCc1nccc(CN2CCC(CNC(=O)Nc3ccccc3)C2)n1 (centres undefined) | 18.8
Cc1ccc(Cl)cc1NC(=O)Cn1cc(C(=O)O)ccc1=O | 4.77
CC(c1nc(C2CC2)no1)N(C)Cc1ccc2c(c1)OCCO2 (centres undefined) | -0.549
COC[C@@H]1CCC[C@@]12CN(Cc1ccc(C)s1)CCO2 | 48.9
c1csc(-c2noc(C3CCCOC3)n2)c1 (centres undefined) | -2.62
COCCN(C)C[C@@H]1CN(C(=O)c2ccc(C)cc2)C[C@@H]1CO | -9.29
O=C(N1CCC(Oc2ccncc2)CC1)C1(c2ccc(F)cc2)CC1 | -3.22
Cc1ccsc1CN(C)C(=O)Cn1nc(-c2ccc(F)cc2)oc1=O | 4.04
CC(COc1ccccc1)NCc1cn2ccccc2n1 (centres undefined) | -4.87
Cc1cccc(C2(CNC(C)c3nnc(C)o3)CCCC2)c1 (centres undefined) | -6.44
CN(c1ncnc2c1CCC2)C1CCCN(c2cccnn2)C1 (centres undefined) | 1.68
CC1CN(C(=O)c2sccc2Br)CCO1 (centres undefined) | -10.9
CN(C)S(=O)(=O)c1ccc2c(c1)N(Cc1nccn1C)CC2 | -3.03
OC1(CN2CCCC2)COCCN(c2ncnc3[nH]ccc23)C1 (centres undefined) | -3.06
O=C(CN1CCc2ccccc21)Nc1ccc(OC(F)F)cc1 | 9.55
Cc1nc(C)c(CC(=O)Nc2nnc(C3CC3)s2)c(=O)[nH]1 | -7.66
Cc1c(C(=O)O)sc2nc(C(F)(F)F)ccc12 | -18.5
O=C(C1CCCO1)N1CCc2ncnc(NC3CCC3)c2CC1 (centres undefined) | -15.3
CNC(=O)c1cc(NC(=O)NCC2CCS(=O)(=O)C2)ccc1OC (centres undefined) | 19.9
Cc1csc(N2CCN(C(=O)C3(C#N)CCCCC3)CC2)n1 | -9.16
NC(=O)[C@@H]1Cc2ccccc2CN1CCC(=O)N1CCOCC1 | -5.31
CC(NC(=O)NCCCn1ccnc1)c1nncn1C (centres undefined) | -2.89
CNS(=O)(=O)CC(=O)NC(C)Cc1ccccc1Br (centres undefined) | 3.97

Structure (SMILES) | cytotoxicity at 70.5 h [%]
CC(C)C1=NOC2(CCN(Cc3c[nH]c4ccccc34)CC2)C1 | 4.04
O=S(=O)(c1ccccc1)N1C[C@@H]2CCN[C@@H]2C1 | -7.19
Cc1cc2ccccc2n1CCC(=O)N1CCC[C@H]1C(N)=O | -6.97
Cn1ncc2c(N3CCC(CCO)CC3)nc(C(C)(C)C)nc21 | -2.67
CN(CCC(F)(F)F)Cc1nc2ccccc2c(=O)[nH]1 | -3.56
Cc1ccc(N2CC[C@H](O)[C@@H]2Cc2cnn(C)c2)nn1 | -6.12
Cc1ccsc1C(=O)N1CCCn2c(nc(CN(C)C)cc2=O)C1 | 8.58
CCc1cnc(N2C[C@H]3CCCC(N(C)Cc4ccccn4)[C@H]3C2)nc1 (some centres undefined) | -10.1
CN(CCSc1ccccc1)C(=O)C(c1cccnc1)N1CCOCC1 (centres undefined) | 33.5
N#Cc1cccnc1NCCc1cc(F)cc2c1OCOC2 | 24
O=C(Cn1c(=O)oc2ccccc21)N1Cc2cnn(CCO)c2C1 | -2.5
c1ccc(CO[C@H]2CO[C@@]3(CCCN(Cc4ccncc4)C3)C2)nc1 | -16.2
CC(NC(=O)CN1CCN(c2cccc(Cl)c2)CC1)c1ccco1 (centres undefined) | -5.94
Cc1nc(CN2CCO[C@H]3CN(C(=O)c4ccncc4)C[C@H]32)cs1 | 6.5
COCCCn1ccc(NC(=O)NCCCn2ccnc2)n1 | -18.9
Cc1cnc2[nH]c(C(F)(F)F)c(CN3CCCC(CO)C3)c2c1 (centres undefined) | 3.56
O=C(Nc1cccnc1-n1cc(Cl)cn1)C1CC1 | -27.5
CC(C)c1ncc(S(C)(=O)=O)c(C2CCCNC2)n1 (centres undefined) | -7.47
Fc1cccc(C2(CNC3CCSC3)CCOCC2)c1 (centres undefined) | 13.3
CCNC(=O)[C@@H]1C[C@@H](N)CN1C(=O)CCc1ccc(C)c(C)c1 | -10.5
Cc1cccc(C(=O)N2CCCn3cnc(CN4CCCC4=O)c3C2)n1 | 30.9
COc1cc(C2(C(=O)NC3CCN(CC4CC4)CC3)CC2)ccc1C | -6
c1ccc(-c2nn3c(CN4CCOCC4)nnc3s2)nc1 | -3.21

Structure (SMILES) | cytotoxicity at 70.5 h [%]
FC(F)(F)Oc1cccc(CNCc2ccc(-n3cncn3)nc2)c1 | 26.6
O=C(Cc1n[nH]c(-c2cncc(Br)c2)n1)NCc1cccnc1 | -9.48
c1ccc2oc(C3CCN(Cc4ncon4)CC3)nc2c1 | -0.981
CC(C)c1nnc2n1CCN(C(=O)c1ccnc(-n3ccnc3)c1)C2 | 19.7
Cc1ccnc(NC(=O)C2CCN(CCCn3ccnc3)CC2)c1 | -15.3
Cc1cc2c(=O)n3c(nc2s1)CCN(C(=O)c1sc(C)nc1C)CC3 | -2.56
CCC(CO)N(Cc1ccco1)C(=O)c1sccc1NC(C)=O (centres undefined) | -5.95
COc1c(CNCCNC(=O)c2ccco2)c(C)nn1C | -10.7
Cc1cccc(N2CCN(C(=O)C3CC4(CCNCC4)CN3)CC2)n1 (centres undefined) | 5.27
Fc1cccc(CN2CCC(c3cc4ncccc4cn3)CC2)c1F | 4.71
CC(=O)N1CCN(C(=O)c2csc(-c3ccc(C)cc3C)n2)CC1 | 14.1
Cc1cc(N(Cc2cccs2)C2CC2)n2nc(C(F)(F)F)nc2n1 | -1.76
N#Cc1c(F)cccc1N1CCCC(C(=O)Nc2nccs2)C1 (centres undefined) | -19.5
Cc1nnc2n1CCN(C(=O)CN1C(=O)CCCc3ccccc31)C2 | 12.9
CCn1ccc(C(=O)N2CCOC(c3nc(-c4cccs4)no3)C2)n1 (centres undefined) | -4.33
CC(C)N1CCc2c(c(COc3cncnc3)nn2CC2CC2)C1 | -3.91
Cc1csc2c(N3CCC(NCCCC4CCOC4)CC3)ncnc12 (centres undefined) | 30.5
CCn1c(N)nc2cc(C(=O)NCCNc3ncccc3C)cnc21 | -3.99
Cc1cnn(CC2CN(CC(=O)NCc3ccco3)CCO2)c1 (centres undefined) | -15.3
CO[C@H]1CN(Cc2ccccc2F)[C@@H]2CCCO[C@H]12 | -1.13
CCCNS(=O)(=O)Cc1ccc(Br)cc1 | -7.66
c1ccc(C2CCCN(c3cncc(-n4cccn4)n3)CC2)cc1 (centres undefined) | -9.13
